Measured values taken from PubChem BioAssay (NCI).
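Following 48 hours of exposure in 96-well plates, responses at five concentrations were used to interpolate endpoints linearly. TGI is the concentration that stops growth completely.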 Activity calls are given as the source filed them. Cut-off read from the data, not from the text of the source: active = GI50 below about 0.43 µM; inactive = the rest.

Columns and labels:
Test in all cases: NCI-60 cell line screen, 48 h
NCI-H23 lung = test system: NCI-H23 lung
U251 CNS = test system: U251 CNS
KM12 colon = test system: KM12 colon
786-0 renal = test system: 786-0 renal
UACC-62 melanoma = test system: UACC-62 melanoma
SR leukemia = test system: SR leukemia
NCI-H226 lung = test system: NCI-H226 lung
ACHN renal = test system: ACHN renal
MALME-3M melanoma = test system: MALME-3M melanoma
LOX IMVI melanoma = test system: LOX IMVI melanoma
K-562 leukemia = test system: K-562 leukemia
HL-60(TB) leukemia = test system: HL-60(TB) leukemia
MDA-MB-435 = test system: MDA-MB-435
SNB-75 CNS = test system: SNB-75 CNS
MDA-MB-231 breast = test system: MDA-MB-231 breast
SK-MEL-2 melanoma = test system: SK-MEL-2 melanoma
A498 renal = test system: A498 renal
SF-295 CNS = test system: SF-295 CNS
MCF7 breast = test system: MCF7 breast
EKVX NSCLC = test system: EKVX NSCLC
T-47D breast = test system: T-47D breast
RXF 393 renal = test system: RXF 393 renal
UO-31 renal = test system: UO-31 renal
M14 melanoma = test system: M14 melanoma
CAKI-1 renal = test system: CAKI-1 renal
DU-145 prostate = test system: DU-145 prostate
MDA-N = test system: MDA-N
OVCAR-4 ovarian = test system: OVCAR-4 ovarian
RPMI-8226 leukemia = test system: RPMI-8226 leukemia
SW-620 colon = test system: SW-620 colon
UACC-257 melanoma = test system: UACC-257 melanoma
PC-3 prostate = test system: PC-3 prostate
CCRF-CEM leukemia = test system: CCRF-CEM leukemia
SF-539 CNS = test system: SF-539 CNS
HCC-2998 colon = test system: HCC-2998 colon
SNB-19 CNS = test system: SNB-19 CNS
COLO 205 colon = test system: COLO 205 colon
TK-10 renal = test system: TK-10 renal
SK-OV-3 ovarian = test system: SK-OV-3 ovarian
MOLT-4 leukemia = test system: MOLT-4 leukemia
HT29 colon = test system: HT29 colon
SN12C renal = test system: SN12C renal
OVCAR-3 ovarian = test system: OVCAR-3 ovarian
NCI-H522 lung = test system: NCI-H522 lung
OVCAR-5 ovarian = test system: OVCAR-5 ovarian
SK-MEL-28 melanoma = test system: SK-MEL-28 melanoma
BT-549 breast = test system: BT-549 breast
HCT-15 colon = test system: HCT-15 colon
SF-268 CNS = test system: SF-268 CNS
HCT-116 colon = test system: HCT-116 colon
NCI-H460 lung = test system: NCI-H460 lung
HOP-62 NSCLC = test system: HOP-62 NSCLC
HS 578T breast = test system: HS 578T breast
OVCAR-8 ovarian = test system: OVCAR-8 ovarian
HOP-92 NSCLC = test system: HOP-92 NSCLC
NCI/ADR-RES ovarian = test system: NCI/ADR-RES ovarian
A549 NSCLC = test system: A549 NSCLC
IGROV1 ovarian = test system: IGROV1 ovarian
SK-MEL-5 melanoma = test system: SK-MEL-5 melanoma

## C[C@H](N)C(O)C/C=C\CC(O)/C=C/C=C\C/C=C\C/C=C\C/C=C\CCCCCCC(O)[C@H](C)N (stereo partly drawn)
NCI-H23 lung
  outcome: inactive
U251 CNS
  outcome: inactive
KM12 colon
  outcome: inactive
786-0 renal
  outcome: inactive
UACC-62 melanoma
  outcome: inactive
SR leukemia
  outcome: inactive
NCI-H226 lung
  outcome: inactive
ACHN renal
  outcome: inactive
MALME-3M melanoma
  outcome: inactive
LOX IMVI melanoma
  outcome: inactive
K-562 leukemia
  outcome: inactive
HL-60(TB) leukemia
  outcome: inactive
MDA-MB-435
  outcome: inactive
SNB-75 CNS
  outcome: inactive
MDA-MB-231 breast
  outcome: inactive
SK-MEL-2 melanoma
  outcome: inactive
A498 renal
  outcome: inactive
SF-295 CNS
  outcome: inactive
MCF7 breast
  outcome: inactive
EKVX NSCLC
  outcome: inactive
T-47D breast
  outcome: inactive
RXF 393 renal
  outcome: inactive
UO-31 renal
  outcome: inactive
M14 melanoma
  outcome: inactive
CAKI-1 renal
  outcome: inactive
DU-145 prostate
  outcome: inactive
MDA-N
  outcome: inactive
OVCAR-4 ovarian
  outcome: inactive
RPMI-8226 leukemia
  outcome: inactive
SW-620 colon
  outcome: inactive
UACC-257 melanoma
  outcome: inactive
PC-3 prostate
  outcome: inactive
CCRF-CEM leukemia
  outcome: inactive
SF-539 CNS
  outcome: inactive
HCC-2998 colon
  outcome: inactive
SNB-19 CNS
  outcome: inactive
COLO 205 colon
  outcome: inactive
TK-10 renal
  outcome: inactive
SK-OV-3 ovarian
  outcome: inactive
MOLT-4 leukemia
  outcome: inactive
HT29 colon
  outcome: inactive
SN12C renal
  outcome: inactive
OVCAR-3 ovarian
  outcome: inactive
NCI-H522 lung
  outcome: inactive
OVCAR-5 ovarian
  outcome: inactive
SK-MEL-28 melanoma
  outcome: inactive
BT-549 breast
  outcome: inactive
HCT-15 colon
  outcome: inactive
SF-268 CNS
  outcome: inactive
HCT-116 colon
  outcome: inactive
NCI-H460 lung
  outcome: inactive
HOP-62 NSCLC
  outcome: inactive
HS 578T breast
  outcome: inactive
OVCAR-8 ovarian
  outcome: inactive

## Cn1c(C(O)C2(c3cccnc3)SCCCS2)cc2ccccc21 (stereo not drawn)
NCI-H23 lung
  TGI: > 100 µM
U251 CNS
  TGI: > 100 µM
KM12 colon
  TGI: > 100 µM
786-0 renal
  TGI: > 100 µM
UACC-62 melanoma
  TGI: > 100 µM
HOP-92 NSCLC
  TGI: > 100 µM
SR leukemia
  TGI: > 100 µM
NCI-H226 lung
  TGI: > 100 µM
ACHN renal
  TGI: > 100 µM
MALME-3M melanoma
  TGI: > 100 µM
LOX IMVI melanoma
  TGI: > 100 µM
K-562 leukemia
  TGI: > 100 µM
HL-60(TB) leukemia
  TGI: > 100 µM
NCI/ADR-RES ovarian
  TGI: > 100 µM
A549 NSCLC
  TGI: > 100 µM
MDA-MB-435
  TGI: > 100 µM
SNB-75 CNS
  TGI: > 100 µM
MDA-MB-231 breast
  TGI: > 100 µM
IGROV1 ovarian
  TGI: > 100 µM
SK-MEL-2 melanoma
  TGI: > 100 µM
A498 renal
  TGI: > 100 µM
SF-295 CNS
  TGI: > 100 µM
MCF7 breast
  TGI: > 100 µM
EKVX NSCLC
  TGI: > 100 µM
T-47D breast
  TGI: > 100 µM
UO-31 renal
  TGI: > 100 µM
M14 melanoma
  TGI: > 100 µM
SK-MEL-5 melanoma
  TGI: > 100 µM
CAKI-1 renal
  TGI: > 100 µM
DU-145 prostate
  TGI: > 100 µM
MDA-N
  TGI: > 100 µM
OVCAR-4 ovarian
  TGI: > 100 µM
RPMI-8226 leukemia
  TGI: > 100 µM
SW-620 colon
  TGI: > 100 µM
UACC-257 melanoma
  TGI: > 100 µM
PC-3 prostate
  TGI: > 100 µM
CCRF-CEM leukemia
  TGI: > 100 µM
HCC-2998 colon
  TGI: > 100 µM
SNB-19 CNS
  TGI: > 100 µM
COLO 205 colon
  TGI: > 100 µM
TK-10 renal
  TGI: > 100 µM
SK-OV-3 ovarian
  TGI: > 100 µM
HT29 colon
  TGI: > 100 µM
SN12C renal
  TGI: > 100 µM
OVCAR-3 ovarian
  TGI: > 100 µM
OVCAR-5 ovarian
  TGI: > 100 µM
SK-MEL-28 melanoma
  TGI: > 100 µM
BT-549 breast
  TGI: > 100 µM
HCT-15 colon
  TGI: > 100 µM
SF-268 CNS
  TGI: > 100 µM
HCT-116 colon
  TGI: > 100 µM
NCI-H460 lung
  TGI: > 100 µM
HOP-62 NSCLC
  TGI: > 100 µM
OVCAR-8 ovarian
  TGI: > 100 µM
